The text below walks through data of ChEMBL document CHEMBL1127439, “Structure-activity relationship studies of central nervous system agents. 13. 4-[3-(Benzotriazol-1-yl)propyl]-1-(2-methoxyphenyl)piperazine, a new putative 5-HT1A receptor antagonist, and its analogs” (J Med Chem, 1994).

Molecules are shown by their SMILES.

Test [1] concerns the target T1, 5-hydroxytryptamine receptor 1A (Rattus norvegicus, UniProt P19327).
T1 sequence (P19327 whole entry): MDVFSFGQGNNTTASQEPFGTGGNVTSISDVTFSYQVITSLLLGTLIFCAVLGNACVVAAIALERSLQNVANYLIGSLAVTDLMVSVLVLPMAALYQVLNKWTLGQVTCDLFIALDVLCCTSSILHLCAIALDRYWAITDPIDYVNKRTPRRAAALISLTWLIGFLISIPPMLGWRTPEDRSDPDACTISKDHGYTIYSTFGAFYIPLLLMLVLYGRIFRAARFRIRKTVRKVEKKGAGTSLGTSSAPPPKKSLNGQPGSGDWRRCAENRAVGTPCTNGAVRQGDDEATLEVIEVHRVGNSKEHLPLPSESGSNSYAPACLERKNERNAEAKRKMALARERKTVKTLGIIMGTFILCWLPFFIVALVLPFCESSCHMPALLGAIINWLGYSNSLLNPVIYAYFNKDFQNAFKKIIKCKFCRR
Briefly: Tested in vitro for receptor binding affinity against 5-hydroxytryptamine 1A receptor using radioligand [3H]8-OH-DPAT.

Test [2] has as its system Mus musculus. Kind of test: Effect on 8-OH-DPAT-induced hypothermia in mice (5 mg/kg) at intraperitoneal dosage of 4 mg/kg of compound after 45 mins. Type of test: functional.
The subject of test [3] is Mus musculus. Kind of test: Effect on 8-OH-DPAT-induced hypothermia in mice (5 mg/kg) at intraperitoneal dosage of 8 mg/kg of compound after 45 mins. The class given is functional.
The subject of test [4] is Mus musculus. Briefly: Effect on body temperature in mice at intraperitoneal dosage of 1 mg/kg, (compound administered 30 min before the test) after 45 min. Type of test: functional.
For test [5], the system named is Mus musculus. Kind of test: Effect on body temperature in mice at intraperitoneal dosage of 1 mg/kg, (compound administered 30 min before the test) after 75 min. The class given is functional.
In test [6] the test system is Mus musculus. Kind of test: Effect on body temperature in mice at intraperitoneal dosage of 8 mg/kg, (compound administered 30 min before the test) after 75 min. Type of test: functional.
In test [7] the test system is Mus musculus. Briefly: Effect on body temperature in mice at intraperitoneal dosage of 8 mg/kg, (compound administered 30 min before the test) after 90 min. The class given is functional.
The test system of test [8] is Mus musculus. Kind of test: Effect on 8-OH-DPAT-induced hypothermia in mice (5 mg/kg) at intraperitoneal dosage of 2 mg/kg of compound after 60 mins. The class given is functional.
The subject of test [9] is Rattus norvegicus. Briefly: Tested for the effect on 8-OH-DPAT-induced behavior in reserpine pretreated rat against forepaw treading at dosage of 8 mg/kg. The class given is functional.
The species named for test [10] is Rattus norvegicus. Kind of test: Selectivity is the ratio between Ki values of 5-HT2 and 5-HT1A.

In test [1], `COc1ccccc1N1CCN(CCCn2nnc3ccccc32)CC1` showed a Ki of 15 nM. For the same compound, the Delta t is 0 °C in the test on Mus musculus [2]; 0.7 °C in the test on Mus musculus [3]; 0.1 °C in the test with Mus musculus [4]; 0 °C in the test with Mus musculus [5]; 0.2 °C in the test on Mus musculus [6]; 0.2 °C in the test on Mus musculus [7]. In the test on Mus musculus [8], this compound came in with a Delta t of 0.1 °C. In addition, the Behavioral score in the test with Rattus norvegicus [9] was 3.7. In the test filed under Rattus norvegicus [10], the Selectivity was 69.
